Measurements as given in ChEMBL document CHEMBL1124020, “Synthesis and antiherpetic activity of (+/-)-9-[[(Z)-2-(hydroxymethyl)cyclopropyl]methyl]guanine and related compounds” (1988).
Converted amounts (≈) assume the structure as drawn. The source made the active and inactive calls. No cut-off for these calls is given here.

Tests used:
[1] = biological target: T1, DNA polymerase catalytic subunit (Herpes simplex virus (type 1 / strain 17)) (UniProt P04293); test: Percentage of diphosphates (DP) in the second step of staggered assay mixture from step 1 was incubated with GMP kinase and crude extract of HSV-1 infected HeLa cells over night; format: functional, cell-based
T1 sequence (whole entry): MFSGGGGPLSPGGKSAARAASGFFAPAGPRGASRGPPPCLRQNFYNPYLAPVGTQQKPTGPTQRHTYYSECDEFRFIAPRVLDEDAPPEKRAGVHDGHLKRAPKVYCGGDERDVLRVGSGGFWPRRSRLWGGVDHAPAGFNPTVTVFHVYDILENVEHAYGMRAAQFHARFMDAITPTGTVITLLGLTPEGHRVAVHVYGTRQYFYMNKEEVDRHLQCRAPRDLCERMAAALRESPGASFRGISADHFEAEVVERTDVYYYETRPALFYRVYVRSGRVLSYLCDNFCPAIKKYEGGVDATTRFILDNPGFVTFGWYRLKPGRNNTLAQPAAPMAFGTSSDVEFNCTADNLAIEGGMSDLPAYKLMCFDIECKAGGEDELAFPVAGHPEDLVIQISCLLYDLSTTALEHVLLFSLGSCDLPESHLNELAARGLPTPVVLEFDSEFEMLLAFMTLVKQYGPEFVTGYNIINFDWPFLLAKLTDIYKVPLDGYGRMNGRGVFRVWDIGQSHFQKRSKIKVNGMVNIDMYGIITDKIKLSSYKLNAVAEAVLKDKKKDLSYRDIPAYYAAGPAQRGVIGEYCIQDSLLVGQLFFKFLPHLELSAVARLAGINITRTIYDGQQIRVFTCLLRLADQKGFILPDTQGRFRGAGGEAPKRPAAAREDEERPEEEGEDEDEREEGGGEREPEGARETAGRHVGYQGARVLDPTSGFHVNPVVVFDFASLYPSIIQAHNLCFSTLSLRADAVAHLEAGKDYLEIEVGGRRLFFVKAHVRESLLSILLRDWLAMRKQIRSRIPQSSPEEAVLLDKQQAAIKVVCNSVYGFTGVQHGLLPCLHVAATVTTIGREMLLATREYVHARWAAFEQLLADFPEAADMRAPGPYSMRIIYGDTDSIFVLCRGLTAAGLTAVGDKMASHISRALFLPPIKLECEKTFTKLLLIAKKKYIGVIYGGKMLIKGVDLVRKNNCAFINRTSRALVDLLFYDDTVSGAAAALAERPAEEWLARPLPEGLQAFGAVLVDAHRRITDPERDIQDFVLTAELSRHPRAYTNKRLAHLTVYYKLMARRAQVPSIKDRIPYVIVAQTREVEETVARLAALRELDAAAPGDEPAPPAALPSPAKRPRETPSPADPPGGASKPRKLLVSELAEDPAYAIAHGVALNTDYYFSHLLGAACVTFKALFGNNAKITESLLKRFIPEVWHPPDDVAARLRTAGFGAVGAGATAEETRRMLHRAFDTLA

[2] = biological target: T1, DNA polymerase catalytic subunit (Herpes simplex virus (type 1 / strain 17)); test: Percentage of monophosphates (MP) in the second step of staggered assay mixture from step 1 was incubated with GMP kinase and crude extract of HSV-1 infected HeLa cells over night; format: functional, cell-based
[3] = biological target: T1, DNA polymerase catalytic subunit (Herpes simplex virus (type 1 / strain 17)); test: (§1) Percentage of triphosphates (TP) in the second step of staggered assay mixture from step 1 was incubated with GMP kinase and crude extract of HSV-1 infected HeLa cells over night; format: functional, cell-based; settings: Homo sapiens
[4] = organism: Oryctolagus cuniculus; test: Antiviral activity against HSV-2 cell line (concentration required to prevent viral cytopathic effect in half of primary rabbit kidney cell cultures); Not Active at 100 ug/mL; format: functional, organism-based
[5] = biological target: T1, DNA polymerase catalytic subunit (Herpes simplex virus (type 1 / strain 17)); test: (§2) Inhibition of DNA polymerase; design: concentration or dose not given beside the values; settings: concentration not given here
[6] = as §2; design: concentration or dose not given beside the values; settings: concentration not given here
[7] = organism: Oryctolagus cuniculus; test: Antiviral activity against HSV-1 cell line (concentration required to prevent viral cytopathic effect in half of primary rabbit kidney cell cultures); Not Active at 100 ug/mL; format: functional, organism-based
[8] = organism: Oryctolagus cuniculus; test: (§3) Antiviral activity against HSV-2 cell line (concentration required to prevent viral cytopathic effect in half of primary rabbit kidney cell cultures); format: functional; settings: read-out: ED50 (the source's name)
[9] = organism: Oryctolagus cuniculus; test: (§4) Antiviral activity against HSV-1 cell line (concentration required to prevent viral cytopathic effect in half of primary rabbit kidney cell cultures); format: functional; settings: read-out: ED50 (the source's name)
[10] = as §2; format: functional; settings: concentration not given here
[11] = tested on: Thymidine kinase (Human herpesvirus 1); test: Percentage of monophosphates (MP) formed in the first step of staggered assay compound was incubated with HSV-1 thymidine kinase for 4 hr
[12] = as §4; settings: Oryctolagus cuniculus, read-out: ED50
[13] = as §3; settings: Oryctolagus cuniculus, HSV-2, read-out: ED50
[14] = tested on: HeLa; test: as §1; format: functional, Homo sapiens

| Structure (SMILES) | DP [1] | MP [2] | TP [3] | ED50 [4] | inhibition [5] | inhibition [6] | ED50 [7] | EC50 [8] | EC50 [9] | inhibition [10] | NA [4] | MP [11] | NA [7] | EC50 [12] | EC50 [13] | TP [14] |
| --- | --- | --- | --- | --- | --- | --- | --- | --- | --- | --- | --- | --- | --- | --- | --- | --- |
| Cc1cn(C[C@H]2C[C@H]2CO)c(=O)[nH]c1=O | 0% | 23% | 0% | inactive | 22% | 0% | inactive |  |  |  |  |  |  |  |  |  |
| Nc1nc(O)c2ncn(C[C@H]3C[C@H]3CO)c2n1 | 0% | 0% | 76% |  | 3% | 14% |  | 12 µg/mL (≈ 51 µM) | 6 µg/mL (≈ 25.5 µM) |  |  |  |  |  |  |  |
| Nc1nc(O)c2ncn(C/C=C/CO)c2n1 | 0% | 9% | 0% | inactive | 0% | 0% | inactive |  |  |  |  |  |  |  |  |  |
| Nc1nc(O)c2ncn(C[C@H]3C[C@@H]3CO)c2n1 | 48% | 9% | 2% | inactive | 26% | 30% | inactive |  |  |  |  |  |  |  |  |  |
| Nc1nc(O)c2ncn(CCC(CO)CO)c2n1 [PENCICLOVIR] | 13% | 3% | 75% |  | 0% | 8% |  | 12 µg/mL (≈ 47.4 µM) | 6 µg/mL (≈ 23.7 µM) |  |  |  |  |  |  |  |
| Nc1nc2c(ncn2CCCCO)c(=O)[nH]1 | 10% | 0% | 17% |  | 20% | 20% |  | 12 µg/mL (≈ 53.8 µM) | 3 µg/mL (≈ 13.4 µM) |  |  |  |  |  |  |  |
| Nc1ncnc2c1ncn2CC1CC1(CO)CO (stereo unspecified) | 0% | 0% | 0% |  | 0% |  |  | 50 µg/mL (≈ 201 µM) | 50 µg/mL (≈ 201 µM) | 12% |  |  |  |  |  |  |
| Nc1nc2c(ncn2COC(CO)CO)c(=O)[nH]1 [GANCICLOVIR] | 10% | 3% | 84% |  | 60% | 22% |  | 3 µg/mL (≈ 11.8 µM) | 3 µg/mL (≈ 11.8 µM) |  |  |  |  |  |  |  |
| Nc1ncnc2c1ncn2C/C=C\CO | 0% | 0% | 0% |  | 0% | 3% |  |  |  |  | inactive | 0% | inactive |  |  |  |
| Nc1nc(O)c2nnn(C[C@H]3C[C@H]3CO)c2n1 | 41% | 2% | 55% | inactive | 0% | 1% | inactive |  |  |  |  |  |  |  |  |  |
| Nc1ncnc2c1ncn2C[C@H]1C[C@H]1CO | 0% | 0% | 0% | inactive | 5% | 0% | inactive |  |  |  |  |  |  |  |  |  |
| Nc1nc(O)c2ncn(C[C@H]3CC3(CO)CO)c2n1 | 0% | 0% | 0% | inactive | 0% | 0% |  |  | 50 µg/mL (≈ 188 µM) |  |  |  |  |  |  |  |
| Nc1nc(O)c(N=O)c(NC[C@H]2C[C@H]2CO)n1 | 0% | 0% | 21% | inactive | 8% | 0% | inactive |  |  |  |  |  |  |  |  |  |
| Nc1nc(O)c2ncn(CC#CCO)c2n1 | 0% | 0% | 0% | inactive | 0% | 5% | inactive |  |  |  |  |  |  |  |  |  |
| Nc1ncnc2c1ncn2C[C@H]1C[C@@H]1CO | 0% | 0% | 0% |  | 0% | 0% |  | 50 µg/mL (≈ 228 µM) | 50 µg/mL (≈ 228 µM) |  |  |  |  |  |  |  |
| Nc1nc(O)c(N=O)c(NC[C@H]2C[C@@H]2CO)n1 | 0% | 9% | 0% | inactive | 9% | 5% | inactive |  |  |  |  |  |  |  |  |  |
| Nc1nc(O)c2ccn(C[C@H]3C[C@H]3CO)c2n1 | 0% | 9% | 0% | inactive | 14% | 0% | inactive |  |  |  |  |  |  |  |  |  |
| Nc1nc2c(ncn2COCCO)c(=O)[nH]1 [ACYCLOVIR] | 9% | 3% | 60% |  | 79% | 40% |  |  |  |  |  |  |  | 3 µg/mL (≈ 13.3 µM) | 3 µg/mL (≈ 13.3 µM) |  |
| Nc1nc(O)c2ncn(C/C=C\CO)c2n1 | 16% | 12% | 64% |  | 12% | 8% |  | 50 µg/mL (≈ 226 µM) | 12 µg/mL (≈ 54.2 µM) |  |  |  |  |  |  |  |
| Nc1nc(O)c2ncn(CC=C(CO)CO)c2n1 | 9% | 0% |  | inactive | 0% | 0% | inactive |  |  |  |  |  |  |  |  | 25% |
